Assay: Stability of DOPE in DOTMA/DOPE liposomes as a function of pH (HPLC lipid recovery, 37° C.)
Format: physicochemical
Details: under all conditions (pH 4-7), up to 6 weeks
Experimental: The stability of DOPE in DOTMA/DOPE liposomes was investigated after adjusting the pH to different values between pH 7 and pH 4. For pH 7, 10 mM HEPES buffer was used. For all lower pH values, acetic acid buffers (all 10 mM) were used (see Table 1). R6 glass type I vials were filled with 2 mL of the liposomes dispersion and stored in a stability chamber at 37° C. pH values were measured by potentiometry using a WTW pH-meter inoLab pH 7310, Weilheim, Germany.
The lipid stability was tested at different time points up to 6 weeks after preparation of the liposomes by measuring the lipid concentration in the liposome preparation using a HPLC system (Agilent Technologies 1200 equipped with DAD and ELSD detectors, Santa Clara, Calif., USA).
Plotted is the normalized recovery of DOPE (in percent) from the DOTMA/DOPE liposomes. […] In contrast, at pH 5, already degradation with a recovery of only 80% of the initial value was observed.

Compound: CCCCCCCC/C=C\CCCCCCCCOCC(C[N+](C)(C)C)OCCCCCCCC/C=C\CCCCCCCC (stereo not shown) [DOTMA, 1,2-di-O-octadecenyl-3-trimethylammoniumpropane]
- degradation of DOTMA in DOTMA/DOPE liposomes: no indication for degradation
